Results reported in patent US7811778B2, “Methods of screening for gastrointestinal cancer” (Vanderbilt University, priority 2006, dated 2010).
Entries after “also recorded” stand apart in the source; their conditions may differ.

Tested on: emerging SPEM cells at the bases of fundic glands
Test: Gene microarray analysis of laser-capture microdissected chief cells and emerging SPEM cells (Affymetrix Mouse 430 2.0)
Type: in vivo, gastrin-deficient mice
Method: See Nomura, S., Yamaguchi, H., Wang, T. C., Lee, J. R., and Goldenring, J. R. 2004. Alterations in gastric mucosal lineages induced by acute oxyntic atrophy in wild type and gastrin deficient mice. Amer. J. Physiol. 288:G362-G375. […] To examine this hypothesis more directly, chief cells were microdissected from the very bases of untreated gastrin knockout mice as well as SPEM cells at the base of fundic glands after 1 and 3 days of treatment with DMP-777. Total RNA was prepared from 10,000 cells isolated from 4 different mice in each group. For each of the 12 samples, linear amplification was performed and Affymetrix Mouse 2.0 gene microarrays were probed. […] Second, 30 genes were identified as being involved in G1-S interface transition, including 5 MCM proteins, BRCA1, RIS2, RAD51, TACC3 and ligase1. Immunocytochemistry was used to confirm the upregulation of MCM3 as well as TACC3 in SPEM cells located at the base of fundic glands in mice treated for 1 or 3 days with DMP-777. All of these changes are consistent with alterations moving towards a proliferative phenotype. […] See Nomura, S., Yamaguchi, H., Wang, T. C., Lee, J. R., and Goldenring, J. R. 2004. Alterations in gastric mucosal lineages induced by acute oxyntic atrophy in wild type and gastrin deficient mice. Amer. J. Physiol. 288:G362-G375. Thus the up-regulation of proteins involved in the G1/S interface is also consistent with transdifferentiation of chief cells into SPEM, since such changes would require a global transcriptome, alterations that would require unwinding of DNA and changes in gene activation including alteration in DNA methylation.
Gastrin-deficient mice were constructed by targeted disruption of the gastrin gene and were maintained on a C57BL/6 background (Nomura S, Yamaguchi H, Wang T C, Lee J R, Goldenring J R. Alterations in gastric mucosal lineages induced by acute oxyntic atrophy in wild type and gastrin deficient mice. Amer.J.Physiol. 2004; In Press). Mice were treated for 1 or 3 days with oral gavage administration of DMP-777 (a gift of DuPont Pharmaceuticals), formulated in 0.5% methylcellulose (administered orally as a gavage once daily at 350 mg/kg/day). Untreated mice were utilized as controls. Mice were sacrificed and their stomachs were excised and opened along the greater curvature and processed for frozen sections for laser capture microdissection. From the untreated Gastrin-deficient mice, chief cells were microdissected from the bases of gastric glands. The emerging SPEM cells were microdissected from the bases of fundic glands of DMP-777-treated Gastrin-deficient mice after 1 or 3 days of oral drug administration. Cell collections (10,000 cells) and extractions of total RNA were performed as previously described (Nomura S, Baxter S, Yamaguchi T, Leys C, Vartapetian A B, Fox J G, Lee J R, Wang T C, Goldenring J R. Relationship of spasmolytic polypeptide expressing metaplasia (SPEM) to pre-neoplasia in H. felis-infected mice. Gastroenterology 2004; 127:582-594).
Total RNA from microdissected cells were reverse transcribed and amplified through two rounds of linear amplification using a Nugen Ovation kit to amplify and label 10-20 ng of RNA. The resulting single-strand cDNA product was purified by binding to and elution from a Qiagen QIAQUICK® column. The cDNA product was then quantitated and 2.2 μg of the fragmented, labeled product was hybridized to Affymetrix Mouse 430 2.0 microarrays overnight, with staining and scanning performed the next day. Gene expression was analyzed among microdissected cells from 4 untreated gastrin-deficient mice 4 mice treated with DMP-777 for one day and 4 mice treated with DMP-777 for three days. The raw gene expression data (.cel files) were converted to expression values using the Affy function in R (see the Bioconductor website). […]

[1] = DMP-777-treated gastrin-deficient mice, microarray
[2] = gastrin knockout mice, 1 day of DMP-777, SPEM cells vs untreated chief cells, fold increases indicated as the exponential of 2
[3] = gastrin knockout mice, 3 days of DMP-777, SPEM cells vs untreated chief cells, fold increases indicated as the exponential of 2
[4] = gastrin-deficient mice, 350 mg/kg/day oral, 1 day, microdissected SPEM cells vs untreated chief cells

## CCC[C@@H](NC(=O)N1C(=O)C(CC)(CC)[C@@H]1Oc1ccc(C(=O)N2CCN(C)CC2)cc1)c1ccc2c(c1)OCO2 [DMP-777]
1 and 3 days of DMP-777-treatment
  pro-apoptotic genes in the cohort of up-regulated gene transcripts: there were not any pro-apoptotic genes detected; also recorded: No pro-apoptotic genes were detected
DMP-777 1 and 3 days, at least 2 fold change
  number of up-regulated genes involved in G1-S interface transition: 30
[1]
  number of the top 50 probes for up-regulated transcripts that detect regulators of the G1/S transition: 34
  transcripts for lipase, a chief cell product: significant decrease
[2]
  BRRN1, Day 1 Fold increase, Relative to Control: 2.2 Fold
  CRIP1, Day 1 Fold increase, Relative to Control: 3.2 Fold
  EREG, Day 1 Fold increase, Relative to Control: 1.8 Fold
  EXOSC8, Day 1 Fold increase, Relative to Control: 2.6 Fold
  EXPI, Day 1 Fold increase, Relative to Control: 2.4 Fold
  FIGNL1, Day 1 Fold increase, Relative to Control: 3.3 Fold
  IL1RN, Day 1 Fold increase, Relative to Control: 4.7 Fold
  LGALS3, Day 1 Fold increase, Relative to Control: 5.5 Fold
  NELF, Day 1 Fold increase, Relative to Control: 2.1 Fold
  S100A4, Day 1 Fold increase, Relative to Control: 2.8 Fold
  TMEM40, Day 1 Fold increase, Relative to Control: 1.4 Fold
  TMEM109, Day 1 Fold increase, Relative to Control: 2.5 Fold
  TR1P13, Day 1 Fold increase, Relative to Control: 3.5 Fold
[3]
  BRRN1, Day 3 Fold Increase, Relative to Control: 3.1 Fold
  CRIP1, Day 3 Fold Increase, Relative to Control: 5.4 Fold
  EREG, Day 3 Fold Increase, Relative to Control: 4.8 Fold
  EXOSC8, Day 3 Fold Increase, Relative to Control: 2.8 Fold
  EXPI, Day 3 Fold Increase, Relative to Control: 8.4 Fold
  FIGNL1, Day 3 Fold Increase, Relative to Control: 2.7 Fold
  IL1RN, Day 3 Fold Increase, Relative to Control: 4.2 Fold
  LGALS3, Day 3 Fold Increase, Relative to Control: 7.3 Fold
  NELF, Day 3 Fold Increase, Relative to Control: 3.7 Fold
  S100A4, Day 3 Fold Increase, Relative to Control: 2.5 Fold
  TMEM40, Day 3 Fold Increase, Relative to Control: 6.9 Fold
  TMEM109, Day 3 Fold Increase, Relative to Control: 3.6 Fold
  TR1P13, Day 3 Fold Increase, Relative to Control: 3.0 Fold
[4]
  5ssca1 transcript, 1 DAY DMP-777 vs CONTROL: 8.9
  Atf3 transcript, 1 DAY DMP-777 vs CONTROL: 311.4
  Cdc2a transcript, 1 DAY DMP-777 vs CONTROL: 11.7
  Cdca1 transcript, 1 DAY DMP-777 vs CONTROL: 9.2
  Cdca5 transcript, 1 DAY DMP-777 vs CONTROL: 17.3
  CdcaS transcript, 1 DAY DMP-777 vs CONTROL: 7.3
  Cenph transcript, 1 DAY DMP-777 vs CONTROL: 25.7
  Clspn transcript, 1 DAY DMP-777 vs CONTROL: 9.5
  Crip1 transcript, 1 DAY DMP-777 vs CONTROL: 9.5
  Dcc1 transcript, 1 DAY DMP-777 vs CONTROL: 8.8
  Ereg transcript, 1 DAY DMP-777 vs CONTROL: 3.6
  ExoscB transcript, 1 DAY DMP-777 vs CONTROL: 6.2
  Fignl1 transcript, 1 DAY DMP-777 vs CONTROL: 10.2
  Gadd45b transcript, 1 DAY DMP-777 vs CONTROL: 8.6
  Il1m transcript, 1 DAY DMP-777 vs CONTROL: 25.4
  Lgals3 transcript, 1 DAY DMP-777 vs CONTROL: 46.8
  Lig1 transcript, 1 DAY DMP-777 vs CONTROL: 9.3
  Mcm6 transcript, 1 DAY DMP-777 vs CONTROL: 25.1
  Ncapg transcript, 1 DAY DMP-777 vs CONTROL: 7.5
  Pole transcript, 1 DAY DMP-777 vs CONTROL: 7.5
  Rad51 transcript, 1 DAY DMP-777 vs CONTROL: 13.5
  Rad54b transcript, 1 DAY DMP-777 vs CONTROL: 6.7
  Rfc3 transcript, 1 DAY DMP-777 vs CONTROL: 8.1
  Rfc4 transcript, 1 DAY DMP-777 vs CONTROL: 8.5
  Rrm1 transcript, 1 DAY DMP-777 vs CONTROL: 8.4
  Tk1 transcript, 1 DAY DMP-777 vs CONTROL: 10.1
